1 molecule from patent US8987250B2 (Gilead Sciences, Inc., priority 2012, dated 2015) can be followed below.

The EC50 is the concentration giving half of the maximal effect.

Data set [1] concerns human liver microsomes. Description: Test B: Metabolic Stability Assay with Human Liver Microsomes. The data set is classed as in vitro ADME. As to conditions: 1 uM compound, 1 mg/mL human liver microsomal proteins, 37° C., 0-60 minutes; half-life class. The text has this:
Test B: Metabolic Stability Assay with Human Liver Microsomes
Effective viral suppression in the HIV infected patient requires that the antiviral drug persists in the patient's body at concentrations exceeding the minimum concentration required to inhibit viral proliferation. One of the factors controlling the drug levels after dosing is metabolic conversion. The liver is one site of drug metabolism. Approximately 60% of marketed drugs are cleared by hepatic metabolism (McGinnity D F et al. (2004) Drug Metab Dispos 32; 1247-1253). Liver microsomes are subcellular fractions which contain membrane bound drug metabolising enzymes. Human liver microsomes provide a convenient and concentrated source of the key liver metabolic enzymes (e.g., cytochromes P450, UDP-glucuronosyltransferases, and many others) and can be used to predict the metabolic stability of drug candidates (e.g., agents).
Cluster tubes containing 500 uL of 1 uM compound with 1 mg/mL human liver microsomal proteins (BD Biosciences, BD452117)/50 mM K-phosphate buffer pH7.4/NADPH regenerating system/and UDP-glucuronosyltransferase cofactors, were incubated on the Precision-2000 workstation at 37° C. for 0, 10, 25, 60 minutes. The reactions were quenched with 100 uL of 0.2% formic acid in 90% ACN; containing 50 nM of an internal standard. The samples were analyzed on LC/MS/MS instrument (Q-Trap). Metabolic stabilities in microsomal fractions and hepatocytes were determined by measuring the rate of disappearance of the compound. Data (% of parent remaining) were plotted on a semi logarithmic scale and fitted using an exponential fit.
For orientation: Microsomes from liver hold many membrane-bound enzymes, among them those of drug oxidation.

Data set [2] concerns HIV-IIIb. Description: Test A: Antiviral Assay in MT4 Cells. Format: cell-based. As to conditions: Human immunodeficiency virus 1, IIIB, MT4, 120 h, Table 2; MT-4 cells infected with HIV-IIIb, 5 days of incubation, CellTiter-Glo; read-out: EC50. The method in brief:
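Read-out: CellTiter-Glo chemiluminescence after 5-day incubation at 37 °C. Compounds tested as 3-fold serial dilutions (10 concentrations, quadruplicate) in RPMI 1640 with 10% FBS, on MT-4 cells pre-infected at 37 °C with HIV-IIIb at 0.004 m.o.i.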

As to `Cc1cc2nc(-c3ccnc(N4CCN(C5COC5)CC4)n3)sc2c(-c2ccc(Cl)cc2)c1[C@H](OC(C)(C)C)C(=O)O` [Compound 336, (S)-2-tert-butoxy-2-(7-(4-chlorophenyl)-5-methyl-2-(2-(4-(oxetan-3-yl)piperazin-1-yl)pyrimidin-4-yl)benzo[d]thiazol-6-yl)acetic acid], the “Human Microsomal stability” value in data set [1] is “A (a human microsomal stability half-life of greater than or equal to 300 minutes)”. Besides, in data set [2], the concentration giving a half-maximal response (EC50) was found to be 2 nM.
